# Patent US9527859B2, “Amidopyridine derivative and use thereof” (Mitsubishi Tanabe Pharma Corporation, priority 2012, dated 2016)
# Key:
# [1] = test system: production of IL-17 in mouse splenocytes stimulated by recombinant mouse interleukin-23; assay: Production of IL-17 induced when mouse splenocytes were stimulated by rm-IL-23 (ELISA); format: cell-based; conditions: Splenocyte, inhibition of IL-17 production, rm-IL-23 1 nmol/L, 72 hours
# Protocol: Effect on Production of IL-17 Induced when Mouse Splenocytes were Stimulated by Recombinant Mouse Interleukin-23 (rm-IL-23)
# RPMI1640 media (Sigma-Aldrich) were used as a medium, to which 50 units/mL penicillin G potassium/50 μg/mL streptomycin (Gibco) and […] 2-mercaptoethanol (Sigma-Aldrich) were added, and then thereto was added 10% of fetal calf serum (FCS; Cell Culture Technology) which was treated at 56° C. for 30 minutes to be inactivated, and the mixture was used in the Test. The test compound was dissolved in dimethylsulfoxide and then diluted with 10% FCS-containing RPMI1640 medium to a desired concentration to be used. The spleens were aseptically taken out from 6 to 7 week-old male DBA/1J mice (Charles River Japan, Inc.) and a single cell suspension of splenocytes was prepared, which was hemolyzed by hypotonic treatment with a mixed solution of 0.83% aqueous solution of ammonium chloride and Tris-HCl buffer of pH 7.65 (9:1). A cell suspension prepared by using 10% FCS-containing RPMI1640 medium was added to a flat-bottomed 96 well microtestplate (Coaster) at 2×10^5 cells/well. Thereto were added test compounds and rm-IL-23 (R&D systems) were diluted with a medium to 1 to 1,000 nmol/L and 1 nmol/L of the final concentration, respectively, and the mixture was cultured at 37° C., 5% carbon dioxide and 95% air for 72 hours. After completion of the culture, culture supernatant was sampled and production amounts of IL-17 therein were determined by ELISA method. After sampling the supernatant, WST-8 (Seikagaku Corporation) was added at 10 μl/well and cultured at 37° C., 5% carbon dioxide and 95% air for 4 hours. Then, absorbance (O.D.: Optical Density) at 450 nm was measured by a microplate reader and the value was adopted as an index of cell survivability. An inhibition rate was calculated according to the following formula on the basis of an average of production amounts of IL-17 and O.D. values of the well containing a test compound of each concentration. Inhibition (%)=(1−(Average value of well with addition of test compound)/(Average value of well without addition of test compound))×100
# Based on the dose-response curve obtained by plotting the inhibition rate in the longitudinal axis and the concentration in the horizontal axis, the concentration of the compound which inhibits the level to 50% of the value of the control group (IC50) (nmol/L) was determined by linear regression analysis.
# [2] = target: T1, hERG current in hERG-expressed HEK 293 cells (Homo sapiens, UniProt Q12809); assay: Effects on hERG current (whole-cell clamp); format: cell-based; conditions: 1 μM of test compound, tail peak current
# T1 construct: host or cells: HEK 293 cells, G418-selected
# T1 sequence (Q12809 whole entry): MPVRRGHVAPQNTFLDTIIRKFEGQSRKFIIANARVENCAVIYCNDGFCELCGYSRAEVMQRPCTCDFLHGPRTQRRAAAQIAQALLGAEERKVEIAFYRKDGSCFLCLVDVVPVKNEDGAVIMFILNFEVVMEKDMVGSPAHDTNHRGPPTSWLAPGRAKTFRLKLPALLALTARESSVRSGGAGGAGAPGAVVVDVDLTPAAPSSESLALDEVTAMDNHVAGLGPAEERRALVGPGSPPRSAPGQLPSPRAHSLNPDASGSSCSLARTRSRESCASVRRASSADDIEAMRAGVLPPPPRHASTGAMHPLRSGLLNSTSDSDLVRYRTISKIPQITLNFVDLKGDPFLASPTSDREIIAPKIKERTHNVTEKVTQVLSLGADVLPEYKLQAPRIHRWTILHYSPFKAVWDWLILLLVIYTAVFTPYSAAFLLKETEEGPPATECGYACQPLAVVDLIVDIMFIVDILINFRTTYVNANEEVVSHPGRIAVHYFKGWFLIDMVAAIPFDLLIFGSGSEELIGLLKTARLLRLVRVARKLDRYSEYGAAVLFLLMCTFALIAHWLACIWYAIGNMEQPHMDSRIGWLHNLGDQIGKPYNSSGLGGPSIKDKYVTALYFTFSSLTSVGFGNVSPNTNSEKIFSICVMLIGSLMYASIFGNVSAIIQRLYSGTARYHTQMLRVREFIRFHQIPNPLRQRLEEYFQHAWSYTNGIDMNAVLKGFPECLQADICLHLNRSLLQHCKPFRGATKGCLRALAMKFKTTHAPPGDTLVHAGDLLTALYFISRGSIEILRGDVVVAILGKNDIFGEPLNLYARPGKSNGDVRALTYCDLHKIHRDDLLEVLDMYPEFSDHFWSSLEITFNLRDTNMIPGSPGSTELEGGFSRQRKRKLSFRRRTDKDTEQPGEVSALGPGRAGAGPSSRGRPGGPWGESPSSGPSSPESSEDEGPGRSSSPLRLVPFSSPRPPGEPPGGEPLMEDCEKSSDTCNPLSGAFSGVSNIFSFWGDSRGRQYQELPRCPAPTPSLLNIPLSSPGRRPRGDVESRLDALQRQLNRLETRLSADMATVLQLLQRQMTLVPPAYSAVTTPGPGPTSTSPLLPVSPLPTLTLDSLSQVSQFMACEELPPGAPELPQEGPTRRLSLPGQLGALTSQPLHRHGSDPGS
# Protocol: Dimethylsulfoxide was used as a vehicle, and hERG-expressed HEK 293 cells (Cytomyx) were used as test cells. Test cells were once cultured and subdivided and were stored under frozen condition in liquid nitrogen. In the study, thawed and subcultured cells having less than 30 of the passage number were used. Test cells were cultured in a carbon dioxide gas incubator BNP-110M (Tabai Espec Corp.) at 37±1° C. and 5.0±0.5% of carbon dioxide concentration. The component of culture medium was basically MEM (Minimum Essential Medium) supplemented with 10 vol % fetal bovine serum (non-activated), 1 mmol/L sodium pyruvate, 0.1 mmol/L non-essential amino acid and 100 U/mL penicillin/100 μg/mL streptomycin. To select gene-expressing cells, 400 μg/mL G418 Sulphate (Invitrogen) was added to the culture medium. […] A manufacturer of the culture solution is Invitrogen Corporation.
# As to seeding of cells for measurement, subcultured cells which became confluent were treated with 0.25% trypsin-solution containing 1 mmol/L EDTA (Invitrogen) to remove therefrom, and seeded on dishes overlaid with sterilized collagen-coated cover glass (Iwaki, AGC Techno Glass Co., LTD). The medium was exchanged appropriately, including the day of measurement.
# A perfusion method was carried out for an application route. Test cells were perfused (perfusion speed: approximately 4 mL/min) with an external solution containing specified concentrations of test compounds (component of external solution: 137 mmol/L of sodium chloride, 4 mmol/L of potassium chloride, 10 mmol/L of HEPES, 1.8 mmol/L of calcium chloride, 1 mmol/L of magnesium chloride and 10 mmol/L of glucose; adjusted to pH 7.4±0.1 with sodium hydroxide solution). When no effects were observed until 4 minutes after switching to a test compound solution, the next different concentration of the test compound was perfused. When effects were observed, the perfusion was continued until the maximum response was observed. The maximum perfusion time for lower concentrations of test compound was set for 10 minutes even when effects were observed. The data were obtained from one experiment or more and the cells which were gently incubated in a carbon dioxide incubator after seeding and attached to cover glasses were used for the measurement.
# A whole-cell clamping method was applied to the measurement. Test cells were perfused (perfusion speed: approximately 4 mL/min) with an external solution (component of external solution: 137 mmol/L of sodium chloride, 4 mmol/L of potassium chloride, 10 mmol/L of HEPES, 1.8 mmol/L of calcium chloride, 1 mmol/L of magnesium chloride and 10 mmol/L of glucose; adjusted to pH 7.4±0.1 with sodium hydroxide solution). A glass electrode with a resistance of 2 to 6 MΩ, filled with an internal solution (component: 130 mmol/L of potassium chloride, 1 mmol/L of magnesium chloride, 5 mmol/L of EGTA, 10 mmol/L of HEPES and 5 mmol/L of ATP, adjusted to pH 7.2±0.1 with potassium hydroxide solution) was used. After rupturing cell membrane with glass electrode, the cell membrane voltage was held at −80 mV by using patch clamp amplifier (EPC8, HEKA) via a patch clamp software (pCLAMP9 [Axon CNS], Molecular Devices). As illustrated below, a test pulse of +20 mV for 1.5 seconds and −40 mV for 1.5 seconds was given once every 15 seconds. One minute or more after obtaining 500 pA or higher peak value of the stable tail currents, test compounds were applied. Test cells and the cell-seeded cover glass were changed every treatment. Temperature of the fluid in a perfusion fluid tank was 24±2° C.
# The obtained current was recorded on a computer by using a patch clamp software via a patch clamp amplifier. An evaluation item was a tail peak current.
# A tail peak current was analyzed using analyzing software (Clampfit 9 [Axon CNS], MolecularDevices). […]
SMILES,IC50 [1] [nM],Inhibition ratio (%) [2] [%]
"Cc1c(C(=O)Nc2cnc(N3CCC(O)CC3)c(C3CC3)c2)cnn1-c1ccc(Cl)cc1 [Example 39, 1-(4-chlorophenyl)-N-[5-cyclopropyl-6-(4-hydroxypiperidin-1-yl)pyridin-3-yl]-5-methyl-1H-pyrazole-4-carboxamide]",136,8.1
"Cc1cc(NC(=O)c2cnn(-c3ccc(Cl)cc3)c2C)cnc1N1CCC(O)CC1 [Example 43, 1-(4-chlorophenyl)-N-[6-(4-hydroxypiperidin-1-yl)-5-methylpyridin-3-yl]-5-methyl-1H-pyrazole-4-carboxamide]",102,9.4
"Cc1c(C(=O)Nc2cnc(N3CCC(O)CC3)c(C#N)c2)cnn1-c1ccc(Cl)cc1 [Example 44, 1-(4-chlorophenyl)-N-[5-cyano-6-(4-hydroxypiperidin-1-yl)pyridin-3-yl]-5-methyl-1H-pyrazole-4-carboxamide]",74.9,2
"Cc1c(C(=O)Nc2cnc(N3CCC(O)CC3)c(C#N)c2)cnn1-c1ccc(C(F)(F)F)cc1 [Example 45, N-[5-cyano-6-(4-hydroxypiperidin-1-yl)pyridin-3-yl]-5-methyl-1-[4-(trifluoromethyl)phenyl]-1H-pyrazole-4-carboxamide]",72.5,4.2
"Cc1cc(NC(=O)c2cnn(-c3ccc(C(F)(F)F)cc3)c2C)cnc1N1CCC(C(C)(C)F)CC1 [Example 47, N-{6-[4-(1-fluoro-1-methylethyl)piperidin-1-yl]-5-methylpyridin-3-yl}-5-methyl-1-[4-(trifluoromethyl)phenyl]-1H-pyrazole-4-carboxamide]",57.9,32.7
"Cc1cc(NC(=O)c2cnn(-c3ccc(C(F)(F)F)cn3)c2C)cnc1N1CCC(C(C)(C)F)CC1 [Example 49, N-{6-[4-(1-fluoro-1-methylethyl)piperidin-1-yl]-5-methylpyridin-3-yl}-5-methyl-1-[5-(trifluoromethyl)pyridin-2-yl]-1H-pyrazole-4-carboxamide]",54.7,40.5
